Assay: Stability of cannabinoid compounds and Vitamin E components in Beverage 2 (AB Red) by LCMSMS
Assay type: physicochemical
Protocol: The stability of the plant-derived cannabinoid compounds and Vitamin E components of the beverage stored 8° C. and at room temperature (21-25° C.) were monitored, over a period of 570 days via Liquid Chromatography-tandem Mass Spectrometry [LCMSMS, AGilent 6590, C18, 3×50 mm, 2.7 m (Agilent InfinityLab Poroshell 120 EC-C18), Electrospray Ionization detector]. The LCMSMS was calibrated for 0-50 ng/ml cannabinoids with the same resin material used in the preparation of the concentrates. At each time period, 100 ml of beverage was diluted with 10 ml of methanol and injected into the LCMSMS for analysis.

CCCCCc1cc(O)c2c(c1)OC(C)(C)c1ccc(C)cc1-2 [CBN, cannabinol]
Stability of Plant-Derived Cannabinoid Compounds in AB Red (stored at 8° C., 0 days): 2.81 µg/mL | Stability of Plant-Derived Cannabinoid Compounds in AB Red (stored at 8° C., 1 days): 2.82 µg/mL | Stability of Plant-Derived Cannabinoid Compounds in AB Red (stored at 8° C., 2 days): 2.74 µg/mL | Stability of Plant-Derived Cannabinoid Compounds in AB Red (stored at 8° C., 3 days): 2.83 µg/mL | Stability of Plant-Derived Cannabinoid Compounds in AB Red (stored at 8° C., 5 days): 2.78 µg/mL | Stability of Plant-Derived Cannabinoid Compounds in AB Red (stored at 8° C., 8 days): 2.80 µg/mL | Stability of Plant-Derived Cannabinoid Compounds in AB Red (stored at 8° C., 9 days): 2.74 µg/mL | Stability of Plant-Derived Cannabinoid Compounds in AB Red (stored at 8° C., 10 days): 2.79 µg/mL | Stability of Plant-Derived Cannabinoid Compounds in AB Red (stored at 8° C., 11 days): 2.73 µg/mL | Stability of Plant-Derived Cannabinoid Compounds in AB Red (stored at 8° C., 12 days): 2.76 µg/mL | Stability of Plant-Derived Cannabinoid Compounds in AB Red (stored at 8° C., 15 days): 2.77 µg/mL | Stability of Plant-Derived Cannabinoid Compounds in AB Red (stored at 8° C., 16 days): 2.83 µg/mL | Stability of Plant-Derived Cannabinoid Compounds in AB Red (stored at 8° C., 17 days): 2.80 µg/mL | Stability of Plant-Derived Cannabinoid Compounds in AB Red (stored at 8° C., 18 days): 2.78 µg/mL | Stability of Plant-Derived Cannabinoid Compounds in AB Red (stored at 8° C., 19 days): 2.78 µg/mL | Stability of Plant-Derived Cannabinoid Compounds in AB Red (stored at 8° C., 22 days): 2.73 µg/mL | Stability of Plant-Derived Cannabinoid Compounds in AB Red (stored at 8° C., 23 days): 2.79 µg/mL | Stability of Plant-Derived Cannabinoid Compounds in AB Red (stored at 8° C., 24 days): 2.76 µg/mL | Stability of Plant-Derived Cannabinoid Compounds in AB Red (stored at 8° C., 25 days): 2.83 µg/mL | Stability of Plant-Derived Cannabinoid Compounds in AB Red (stored at 8° C., 26 days): 2.79 µg/mL | Stability of Plant-Derived Cannabinoid Compounds in AB Red (stored at 8° C., 29 days): 2.77 µg/mL | Stability of Plant-Derived Cannabinoid Compounds in AB Red (stored at 8° C., 30 days): 2.77 µg/mL | Stability of Plant-Derived Cannabinoid Compounds in AB Red (stored at 8° C., 60 days): 2.73 µg/mL | Stability of Plant-Derived Cannabinoid Compounds in AB Red (stored at 8° C., 90 days): 2.80 µg/mL | Stability of Plant-Derived Cannabinoid Compounds in AB Red (stored at 8° C., 120 days): 2.69 µg/mL | Stability of Plant-Derived Cannabinoid Compounds in AB Red (stored at 8° C., 150 days): 2.69 µg/mL | Stability of Plant-Derived Cannabinoid Compounds in AB Red (stored at 8° C., 180 days): 2.74 µg/mL | Stability of Plant-Derived Cannabinoid Compounds in AB Red (stored at 8° C., 210 days): 2.69 µg/mL | Stability of Plant-Derived Cannabinoid Compounds in AB Red (stored at 8° C., 240 days): 2.74 µg/mL | Stability of Plant-Derived Cannabinoid Compounds in AB Red (stored at 8° C., 270 days): 2.76 µg/mL | Stability of Plant-Derived Cannabinoid Compounds in AB Red (stored at 8° C., 300 days): 2.75 µg/mL | Stability of Plant-Derived Cannabinoid Compounds in AB Red (stored at 8° C., 330 days): 2.71 µg/mL | Stability of Plant-Derived Cannabinoid Compounds in AB Red (stored at 8° C., 360 days): 2.69 µg/mL | Stability of Plant-Derived Cannabinoid Compounds in AB Red (stored at 8° C., 390 days): 2.72 µg/mL | Stability of Plant-Derived Cannabinoid Compounds in AB Red (stored at 8° C., 420 days): 2.69 µg/mL | Stability of Plant-Derived Cannabinoid Compounds in AB Red (stored at 8° C., 450 days): 2.71 µg/mL | Stability of Plant-Derived Cannabinoid Compounds in AB Red (stored at 8° C., 480 days): 2.66 µg/mL | Stability of Plant-Derived Cannabinoid Compounds in AB Red (stored at 8° C., 510 days): 2.62 µg/mL | Stability of Plant-Derived Cannabinoid Compounds in AB Red (stored at 8° C., 540 days): 2.60 µg/mL | Stability of Plant-Derived Cannabinoid Compounds in AB Red (stored at 8° C., 570 days): 2.58 µg/mL | Stability of Plant-Derived Cannabinoid Compounds in AB Red (stored at 21-25° C., 0 days): 2.81 µg/mL | Stability of Plant-Derived Cannabinoid Compounds in AB Red (stored at 21-25° C., 1 days): 2.73 µg/mL | Stability of Plant-Derived Cannabinoid Compounds in AB Red (stored at 21-25° C., 2 days): 2.83 µg/mL | Stability of Plant-Derived Cannabinoid Compounds in AB Red (stored at 21-25° C., 3 days): 2.78 µg/mL | Stability of Plant-Derived Cannabinoid Compounds in AB Red (stored at 21-25° C., 5 days): 2.71 µg/mL | Stability of Plant-Derived Cannabinoid Compounds in AB Red (stored at 21-25° C., 8 days): 2.74 µg/mL | Stability of Plant-Derived Cannabinoid Compounds in AB Red (stored at 21-25° C., 9 days): 2.72 µg/mL | Stability of Plant-Derived Cannabinoid Compounds in AB Red (stored at 21-25° C., 10 days): 2.73 µg/mL | Stability of Plant-Derived Cannabinoid Compounds in AB Red (stored at 21-25° C., 11 days): 2.83 µg/mL | Stability of Plant-Derived Cannabinoid Compounds in AB Red (stored at 21-25° C., 12 days): 2.70 µg/mL | Stability of Plant-Derived Cannabinoid Compounds in AB Red (stored at 21-25° C., 15 days): 2.77 µg/mL | Stability of Plant-Derived Cannabinoid Compounds in AB Red (stored at 21-25° C., 16 days): 2.81 µg/mL | Stability of Plant-Derived Cannabinoid Compounds in AB Red (stored at 21-25° C., 17 days): 2.74 µg/mL | Stability of Plant-Derived Cannabinoid Compounds in AB Red (stored at 21-25° C., 18 days): 2.80 µg/mL | Stability of Plant-Derived Cannabinoid Compounds in AB Red (stored at 21-25° C., 19 days): 2.70 µg/mL | Stability of Plant-Derived Cannabinoid Compounds in AB Red (stored at 21-25° C., 22 days): 2.70 µg/mL | Stability of Plant-Derived Cannabinoid Compounds in AB Red (stored at 21-25° C., 23 days): 2.82 µg/mL | Stability of Plant-Derived Cannabinoid Compounds in AB Red (stored at 21-25° C., 24 days): 2.78 µg/mL | Stability of Plant-Derived Cannabinoid Compounds in AB Red (stored at 21-25° C., 25 days): 2.84 µg/mL | Stability of Plant-Derived Cannabinoid Compounds in AB Red (stored at 21-25° C., 26 days): 2.70 µg/mL | Stability of Plant-Derived Cannabinoid Compounds in AB Red (stored at 21-25° C., 29 days): 2.78 µg/mL | Stability of Plant-Derived Cannabinoid Compounds in AB Red (stored at 21-25° C., 30 days): 2.77 µg/mL | Stability of Plant-Derived Cannabinoid Compounds in AB Red (stored at 21-25° C., 60 days): 2.78 µg/mL | Stability of Plant-Derived Cannabinoid Compounds in AB Red (stored at 21-25° C., 90 days): 2.75 µg/mL | Stability of Plant-Derived Cannabinoid Compounds in AB Red (stored at 21-25° C., 120 days): 2.77 µg/mL | Stability of Plant-Derived Cannabinoid Compounds in AB Red (stored at 21-25° C., 150 days): 2.75 µg/mL | Stability of Plant-Derived Cannabinoid Compounds in AB Red (stored at 21-25° C., 180 days): 2.70 µg/mL | Stability of Plant-Derived Cannabinoid Compounds in AB Red (stored at 21-25° C., 210 days): 2.70 µg/mL | Stability of Plant-Derived Cannabinoid Compounds in AB Red (stored at 21-25° C., 240 days): 2.73 µg/mL | Stability of Plant-Derived Cannabinoid Compounds in AB Red (stored at 21-25° C., 270 days): 2.73 µg/mL | Stability of Plant-Derived Cannabinoid Compounds in AB Red (stored at 21-25° C., 300 days): 2.70 µg/mL | Stability of Plant-Derived Cannabinoid Compounds in AB Red (stored at 21-25° C., 330 days): 2.75 µg/mL | Stability of Plant-Derived Cannabinoid Compounds in AB Red (stored at 21-25° C., 360 days): 2.72 µg/mL | Stability of Plant-Derived Cannabinoid Compounds in AB Red (stored at 21-25° C., 390 days): 2.65 µg/mL | Stability of Plant-Derived Cannabinoid Compounds in AB Red (stored at 21-25° C., 420 days): 2.64 µg/mL | Stability of Plant-Derived Cannabinoid Compounds in AB Red (stored at 21-25° C., 450 days): 2.68 µg/mL | Stability of Plant-Derived Cannabinoid Compounds in AB Red (stored at 21-25° C., 480 days): 2.58 µg/mL | Stability of Plant-Derived Cannabinoid Compounds in AB Red (stored at 21-25° C., 510 days): 2.66 µg/mL | Stability of Plant-Derived Cannabinoid Compounds in AB Red (stored at 21-25° C., 540 days): 2.65 µg/mL | Stability of Plant-Derived Cannabinoid Compounds in AB Red (stored at 21-25° C., 570 days): 2.58 µg/mL
